Test results: article PMC10602545, “Retinal Microenvironment‐Protected Rhein‐GFFYE Nanofibers Attenuate Retinal Ischemia‐Reperfusion Injury via Inhibiting Oxidative Stress and Regulating Microglial/Macrophage M1/M2 Polarization” (Advanced Science, 2023)
Peptide text beside a SMILES is read from it. * marks the point of attachment. X1 = O=C1c2cccc(O)c2C(=O)c2c(O)cc(C(=O)*)cc21

Tests used:
R28 cells [1] = experiment: Safety evaluation under normoxic conditions (ATP and LDH); type: cell-based; settings: 24 h
Procedure: (§1) The retinal precursor cell line R28 was purchased from Kerafast (Boston, MA, USA) and cultured according to the procedures recommended by the supplier. Briefly, the cells were grown and maintained in DMEM complete medium containing 420 mL DMEM, 15 mL sodium bicarbonate (Sigma‐Aldrich, St. Louis, MO, USA), 50 mL calf serum, 5 mL MEM non‐essential amino acids, 5 mL L‐glutamine (GIBCO, Grand Island, NY, USA), and 0.625 mL Gentamicin (80 mg mL^−1; Solarbio Life Sciences Co., Ltd, Beijing, China) at 37 °C in a humidified atmosphere containing 5% CO2. The stock solutions of Rh‐GFFYE and control compounds were diluted to varying concentrations with DMEM complete medium just before cell treatment.
(§2) An in vitro OGD model was constructed based on the method detailed by Ryou et al.^[ [56] ^] Briefly, R28 cells were cultured in a glucose‐free medium and subjected to hypoxia (1% O2, 5% CO2) for 24 h. The cells were then re‐oxygenated (21% O2, 5% CO2) for 6 h to simulate RIR. The ATP levels were measured using a CellTiter‐Lumi Plus luminescent cell viability assay (Beyotime, Beijing, China). The cell membrane integrity of the R28 cells was evaluated by LDH release assay (Beyotime, Beijing, China).

[2] = In vivo retinal distribution by CLSM (Cy5.5 label); design: species or system rat
Source text: To evaluate the distribution of Rh‐GFFYE in RIR‐injured and normal retinas, rats were divided into two groups. At 3, 7, 14, and 21 days after a single intravitreal injection of Cy5.5‐Rh‐GFFYE, the rats were killed and retinas were obtained. Retinal cryosections and retinal whole flat mounts were examined by CLSM to observe the distribution of Rh‐GFFYE in vivo.

[3] = Concentration of rhein in retinas by UPLC-MS/MS; type: in vivo, rat
Procedure: To further evaluate the concentration of rhein in retinas, the retinas were collected at 7 and 21 days after a single intravitreal injection of Rh‐GFFYE. The retinas were homogenized using a cryogenic homogenizer (ServiceBio, Wuhan, China), and the supernatants were collected after centrifugation for further analysis. The samples were suspended in ethyl acetate and centrifuged for 5 min to obtain the supernatants which were then dried under nitrogen gas flow. The residues were dissolved with mobile phase solution and then quantified using the UPLC‐MS/MS (AB Sciex Triple Quad TM 4500 system, MA, USA) assay.

[4] = In vivo safety evaluation after intravitreal injection; design: species or system rat
Source text: For safety evaluation, rats were intravitreally injected Rh‐GFFYE nanofibers. 7 days after injection, ERG was used to detect the retinal function and H&E staining was used to detect the morphology of retina. Orbital blood was taken to detect the contents of ALT and AST in plasma. The major organs (heart, liver, spleen, lung, kidney) were harvested for H&E staining to observe changes in each major organ.

rat model of RIR injury [5] = settings: in vivo
Procedure: Prior to establishing the model, each anesthetized rat was administered with 0.3% ofloxacin eye drops. Topyramide eye solution was used to dilate the pupil, and proparacaine hydrochloride was used as an eye anesthetic. A 30‐gauge needle containing a balanced salt solution was cannulated into the anterior chamber. […] The sham operation, which served as the control, was performed without elevating the IOP. After 60 min, the needle was withdrawn, the IOP was normal, the posterior segment was pale, and the blood supply was restored, confirming the successful establishment of the RIR injury model. […] During the experiment, each animal's body temperature was kept between 36.5 and 37°C.
At 24 h after establishing the RIR injury model, the rats were randomly divided into five groups: Sham, Saline, Rh‐GFFYE, Ac‐GFFYE, and Nap‐GFFYE. The methods for anesthesia and pupil dilation were the same as described above. Intravitreal injection was accomplished using a Hamilton syringe, and 4 µL of Rh‐GFFYE was injected to obtain a final rhein concentration of 20 µM in the vitreous humor.^[ [58] ^]
Before ERG recording, all the rats were randomly divided into five groups (Sham, Saline, Nap‐GFFYE, Ac‐GFFYE, and Rh‐GFFYE) and adapted in the dark for 12 h. […] For scotopic ERG, the responses to white flashes of 3.00 cd∙s∙m^−2 were recorded. […]

R28 cells [6] = experiment: In vitro OGD model, cellular ATP content (CellTiter-Lumi Plus); type: cell-based; settings: 24 h pretreatment, varying concentrations (Rh-GFFYE 10, 20, 40 µM); n = 3
Procedure: as §1
as §2, with “The cells were then re‐oxygenated (21% O2, 5% CO2) for 6 h to simulate RIR.” left out

R28 cells [7] = experiment: Intracellular ROS, H2DCF-DA staining after OGD; type: cell-based; settings: 20 µM, 24 h before OGD, CLSM
Procedure: R28 cells were seeded at a density of 1 × 10^5 mL^−1 cells in 35‐mm glass‐bottom Petri dishes and incubated overnight. Before OGD injury, the cells were treated with Rh‐GFFYE, rhein, Nap‐GFFYE, or Ac‐GFFYE at a concentration of 20 µM for 24 h. The OGD‐injured cells were then assayed for intracellular ROS production by H2DCF‐DA staining. Briefly, the cells were treated with 10 µM H2DCF‐DA for 30 min in the cell culture incubator. To remove the unincorporated dye, the cells were washed with PBS and the oxidation of H2DCF‐DA was detected by CLSM.

R28 cells [8] = experiment: Mitochondrial membrane potential, JC-1 staining after OGD; type: cell-based; settings: 20 µM, 24 h prior to OGD; JC-1, CLSM
Procedure: A mitochondrial membrane potential assay kit with JC‐1 (Beyotime, Beijing, China) was used to monitor the changes in the mitochondrial membrane potential of R28 cells subjected to OGD following the procedure recommended by the supplier. Briefly, R28 cells were seeded in dishes at a density of 1 × 10^5 mL^−1 cells and cultured overnight. The cells were treated with Rh‐GFFYE, rhein, Nap‐GFFYE, or Ac‐GFFYE at a concentration of 20 µM for 24 h prior to OGD. Following treatment and recovery, the cells were washed three times with PBS and then incubated with 20 µM JC‐1 for 20 min at 37 °C. After removing the JC‐1 staining solution, the cells were washed three times with JC‐1 dyeing buffer, and 2 mL DMEM was added for CLSM imaging.

[9] = test system: bone marrow‐derived macrophages (BMDMs); experiment: LPS-induced cytokine release, ELISA; type: cell-based, mouse; settings: 20 µM, LPS 100 ng/mL, 24 h
Procedure: The isolation of mouse BMDMs was performed according to the method of Pineda‐Torra et al.^[ [57] ^] Briefly, the femurs and tibias of C57BL/6 mice were carefully separated and transferred into PBS containing 10% penicillin/streptomycin. The BMDMs were flushed out with a syringe and filtered through a 70‐µm strainer. To further purify the BMDMs, lysis buffer was added to remove the red blood cells. The BMDMs were cultured in a DMEM medium containing macrophage colony‐stimulating factor (MCE, Monmouth Junction, NJ, USA).
BMDMs (1 × 10^5 mL^−1 cells in a volume of 1 mL per well in a 24‐well plate) were pretreated with Rh‐GFFYE, rhein, Nap‐GFFYE, and Ac‐GFFYE at a concentration of 20 µM for 1 h prior to the addition of LPS (100 ng mL^−1) for the specified times (6, 24, and 48 h). The supernatants were collected, and the concentrations of IL‐1β and IL‐6 in the culture medium were measured using ELISA kits (Beyotime, Beijing, China) according to the manufacturer's instructions.

[10] = pH between 8.0 and 9.4; cited from earlier work
Source text: Herb‐derived natural products are regarded as promising drug resources due to their anti‐inflammatory and antioxidant effects.^[ [11] ^] Rhein (4,5‐dihydroxyanthraquinone‐2‐carboxylic acid), is an anthraquinone and one of the pharmacologically active components extracted from Rheum.^[ [12] ^] […] Due to its good anti‐apoptotic and anti‐inflammatory effects, rhein has also been used to treat ischemia/reperfus ...

rat model of RIR injury [11] = experiment: Rat RIR injury model, H&E staining of the retina; type: in vivo; settings: intravitreal 4 µL, 20 µM final in vitreous, 24 h after RIR; 7 days; n = 6
Procedure: (§3) Erythromycin eye ointment was used to prevent bacterial infection.
The changes in retinal morphology caused by RIR injury were visualized by H&E staining. At 7 days after the intravitreal injection of Rh‐GFFYE, the eyeballs were removed and then fixed in 4% paraformaldehyde. The eye tissue was then embedded in paraffin, and 4‐µm‐thick slices were prepared. The H&E staining procedure described previously was followed.^[ [59] ^]

rat model of RIR injury [12] = experiment: Rat RIR injury model, immunofluorescence of RGC markers (BRN3A, β‐III‐TUBULIN); type: in vivo; settings: 7 d after intravitreal injection; n = 6
Procedure: as §3
The RIR‐injured rats were euthanized at 7 days after the intravitreal injection of Rh‐GFFYE. Immediately after removal, the eyeball was fixed in 4% paraformaldehyde for 2 h at 4 °C, dehydrated overnight in 30% sucrose solution, embedded in an optimal cutting temperature compound embedding bottom box (17 × 17 × 5 mm), and stored at −80 °C. Slices with thicknesses of 8 µm were created using a frozen slicer at −22 °C. The slices were placed on adhesive slides and dried at room temperature for >30 min before proceeding to the next step. For immunofluorescent staining, the retinal sections were permeabilized with enhanced immunostaining permeabilization buffer (Beyotime, Beijing, China) for 20 min, blocked with blocking buffer (Beyotime, Beijing, China), and incubated overnight at 4 °C with the following primary antibodies: anti‐β‐III‐TUBULIN, anti‐IBA1, anti‐GFAP, anti‐BRN3A (Abcam, UK), anti‐CD86, and anti‐CD206 (Cell Signaling Technology, Danvers, MA, USA). After rinsing three times with PBS, the sections were incubated with secondary antibodies at room temperature for 2 h, rinsed three times with PBS, and counterstained with DAPI. Sealed with a cover glass, the slides were then observed by CLSM.

[13] = day 7 after single intravitreal injection of Rh-GFFYE, retina homogenate
[14] = 7 days after intravitreal injection, n = 6

| Molecule | toxicity on R28 cells (ATP and LDH levels) (R28 cells [1]) | uptake in ischemic retina compared with control non‐ischemic eyes [2] | concentration of rhein in retina at 21 d relative to day 7 ([3]; 21 d after single intravitreal injection) | concentration of rhein in the ischemic retina [3, 13] [ng/g] | concentration of rhein in the normal retina [3, 13] [ng/g] | morphology of the retina (H&E) ([4]; 7 d after intravitreal injection) | retinal function (ERG) of normal rats ([4]; 7 d after intravitreal injection, vs normal group, n = 6) | serum content of alanine aminotransferase (ALT) [4, 14] | serum content of aspartate aminotransferase (AST) [4, 14] | histological structures of main visceral organs (heart, liver, spleen, lung, kidney) ([4]; H&E, 7 days after intravitreal injection) | amplitudes of the oscillatory potentials (OPs) (rat model of RIR injury [5]) | scotopic ERG a and b wave amplitudes (rat model of RIR injury [5]) | recovery of cell viability (ATP content) under OGD (R28 cells [6]) | intracellular ROS level under OGD (R28 cells [7]) | mitochondrial membrane potential (ΔΨm) under OGD (R28 cells [8]) | anti‐inflammatory effect (release of IL‐1β and IL‐6) [9] | concentration at which rhein self‐assembles into a translucent hydrogel [10] [µM] | IPL thickness after RIR injury (rat model of RIR injury [11]) | number of RGCs (BRN3A positive) compared with Saline group (rat model of RIR injury [12]) |
| --- | --- | --- | --- | --- | --- | --- | --- | --- | --- | --- | --- | --- | --- | --- | --- | --- | --- | --- | --- |
| O=C(O)CC[C@H](NC(=O)[C@H](Cc1ccc(O)cc1)NC(=O)[C@H](Cc1ccccc1)NC(=O)[C@H](Cc1ccccc1)NC(=O)CNC(=O)c1cc(O)c2c(c1)C(=O)c1cccc(O)c1C2=O)C(=O)O [Rh‐GFFYE] (X1-GFFYE-OH) | no toxic effect | increased | approximately one‐quarter of that at day 7 | 27.1 | 15.2 | no significant change | not significantly changed | did not show intergroup differences | did not show intergroup differences | did not induce noticeable histological changes | recovered | significant recovery |  |  |  |  |  |  |  |
| O=C(O)c1cc(O)c2c(c1)C(=O)c1cccc(O)c1C2=O [rhein, 4,5‐dihydroxyanthraquinone‐2‐carboxylic acid] |  |  |  |  |  |  |  |  |  |  |  |  | no restorative effect | significant ROS inhibition | recovered | reduced the release of these two inflammatory cytokines to some extent | 14100 |  |  |
| Nap‐GFFYE [control peptide compound in which rhein is replaced with 1‐naphthylacetic acid (Nap)] |  |  |  |  |  |  |  |  |  |  |  |  | no restorative effect |  | no recovery | did not show anti‐inflammatory effects |  | did not ameliorate | No significant differences |
